Source: the Deep4Chem optical property database
Blank lines part the entries; values can stand above or below the molecule they belong to.

Test: solvent given as SMILES

Compound: COC(=O)CN1C(=O)c2cc3ccc(N(C)C)cc3cc2C1=O
absorption maximum (in C1CCOC1): 373 nm | absorption maximum (in CC#N): 380 nm | absorption maximum (in CC(C)=O): 375 nm | absorption maximum (in CCO): 379 nm | absorption maximum (in Cc1ccccc1): 373 nm | absorption maximum (in ClC(Cl)Cl): 380 nm

Compound: c1ccc2c(-n3c4ccccc4c4ccccc43)cccc2c1
absorption maximum (in C1CCCCC1): 321 nm | absorption maximum (in C1CCOC1): 323 nm | absorption maximum (in CC#N): 322 nm | absorption maximum (in CCO): 325 nm | absorption maximum (in CCOC(C)=O): 323 nm | absorption maximum (in CCOCC): 322 nm | absorption maximum (in CO): 323 nm | absorption maximum (in Cc1ccccc1): 321 nm | absorption maximum (in ClC(Cl)Cl): 324 nm

Compound: c1ccc2c(c1)c1ccccc1n2-c1cc(-c2nc3ccccn3n2)cc(-n2c3ccccc3c3ccccc32)c1
absorption maximum (in Cc1ccccc1): 338 nm

absorption maximum (in CCCCCC): 293 nm
Compound: C/C=C/c1cccc(OC)c1

absorption maximum (in c1ccccc1): 410 nm
Compound: CCOC(=O)c1sc2nc3c(c(C#N)c2c1N)CCCCCC3

absorption maximum (in ClC(Cl)Cl): 394 nm
Compound: c1ccc(-c2ccc(-c3nc(-c4ccccc4)c(N(c4ccccc4)c4ccccc4)[se]3)cc2)cc1

absorption maximum (in C1CCCCC1): 336 nm
Compound: COc1ccc(C2=C(c3ccc(OC)cc3)C(C)(C)c3c2ccc2ccccc32)cc1

absorption maximum (in CCCCCC): 450 nm
Compound: CC(C)[Si](C#Cc1c2nc3c(nc2c(C#C[Si](C(C)C)(C(C)C)C(C)C)c2nc4c(nc12)C1c2ccccc2C4c2ccccc21)C1c2ccccc2C3c2ccccc21)(C(C)C)C(C)C

absorption maximum (in ClC(Cl)Cl): 551 nm
Compound: CCCCCCCCN1C(=O)c2ccc3c4c(-c5ccc(-n6c7ccccc7c7ccccc76)cc5)cc5c6c(cc(-c7ccc(-n8c9ccccc9c9ccccc98)cc7)c(c7ccc(c2c37)C1=O)c64)C(=O)N(CCCCCCCC)C5=O

absorption maximum (in ClC(Cl)Cl): 691 nm
Compound: CCCCOC(=O)/C(C#N)=C1\C(=CC2=[N+](C)c3ccccc3C2(C)C)C([O-])=C1C=C1N(C)c2ccccc2C1(C)C

absorption maximum (in ClC(Cl)Cl): 640 nm
Compound: CCCCCCCCCCCCOc1cc2c3c(ccc4c5c(NC6CCCCC6)cc6c7c(ccc(c1c34)c75)C(=O)N(C1CCCCC1)C6=O)C(=O)N(C1CCCCC1)C2=O

absorption maximum (in CC#N): 364 nm
Compound: C(=C\c1nc2c3ccccc3c3ccccc3c2o1)/c1ccccc1

absorption maximum (in C1CCCCC1): 377 nm | absorption maximum (in CC#N): 377 nm | absorption maximum (in CO): 372 nm | absorption maximum (in ClCCl): 380 nm | absorption maximum (in O): 430 nm
Compound: N#Cc1ccc(-c2nc(-c3ccccc3)c3ccccn23)cc1

absorption maximum (in CO): 584.58 nm
Compound: c1ccc(C2CSC(c3c4ccc(=[N+]5CCCCC5)cc-4oc4cc(N5CCCCC5)ccc34)SC2)cc1 (configuration not stated)

Compound: C[Si]1(C)C2=C(c3ccc(N(c4ccccc4)c4ccccc4)cc31)P(=O)(c1ccccc1)c1ccccc12 (configuration not stated)
absorption maximum (in CC#N): 440 nm | absorption maximum (in CO): 452 nm | absorption maximum (in Cc1ccccc1): 446 nm

absorption maximum (in ClCCl): 372 nm
Compound: c1ccc(N(c2ccccc2)c2ccc(-c3ccc4c(c3)C3(c5cc(-c6ccc(N(c7ccccc7)c7ccccc7)cc6)ccc5-4)c4ccccc4N(c4ccccc4)c4ccccc43)cc2)cc1

absorption maximum (in C1CCOC1): 321.23 nm
Compound: c1ccc(-c2nc(-c3ccccc3)nc(-n3c4ccccc4c4cc(-n5c6ccccc6c6ccccc65)ccc43)n2)cc1

absorption maximum (in ClCCl): 494 nm
Compound: CCCCCN1c2ccccc2Sc2cc(/C=C/c3ccc(/C=C(\C#N)C(=O)O)s3)ccc21

absorption maximum (in ClC(Cl)Cl): 342 nm
Compound: FC(F)(F)c1ccc2oc3nc4oc5ccc(-n6c7ccccc7c7ccccc76)cc5c4cc3c2c1

Compound: COC(=O)/C(C#N)=c1\s/c(=c2/s/c(=C(/C#N)C(=O)OC)c3cc(-c4ccccc4)sc23)c2sc(-c3ccccc3)cc12
absorption maximum (in Cc1ccccc1): 605 nm

absorption maximum (in C1COCCO1): 456 nm
Compound: CCC12C(=C3C(=C4c5ccc(-c6ccccc6)cc5S(=O)(=O)C41CC)C(F)(F)C(F)(F)C3(F)F)c1ccc(-c3ccccc3)cc1S2(=O)=O (configuration not stated)

absorption maximum (in CCO): 360 nm
Compound: Cc1nc2c(cc3c4c(cccc42)C(=O)OC3=O)o1

absorption maximum (in ClC(Cl)Cl): 334 nm
Compound: CCCCc1cc(-c2cccc(COC)c2)oc1-c1cccc(-c2oc(-c3cccc(COC)c3)cc2CCCC)c1

absorption maximum (in CC#N): 333 nm
Compound: C=Cc1cc2ccc(OC)cc2oc1=O

absorption maximum (in ClC(Cl)Cl): 338 nm | absorption maximum (in ClCCl): 339 nm
Compound: O=[N+]([O-])c1ccc(C#Cc2ccc3ccccc3c2)cc1

absorption maximum (in ClC(Cl)Cl): 364 nm
Compound: c1ccc2c(c1)Oc1ccccc1C21c2cc(-c3ccc4ccc5cccc6ccc3c4c56)ccc2-c2ccc(-c3ccc4ccc5cccc6ccc3c4c56)cc21

absorption maximum (in C1CCCCC1): 296 nm
Compound: Nc1ccc2cn[nH]c2c1

absorption maximum (in ClCCl): 445 nm
Compound: N#CC(C#N)=Cc1ccc2c(c1)[nH]c1c3ccccc3sc21

absorption maximum (in CCO): 590 nm | absorption maximum (in O): 590 nm
Compound: CC/[NH+]=c1\cc2oc3cc(NCCC(=O)NCCCCC(NC(C)=O)C(=O)OC)c4ccccc4c3nc-2cc1C (configuration not stated)

absorption maximum (in ClC(Cl)Cl): 562 nm
Compound: CCCC1=CC2=C(c3c(C)cc(C)cc3C)c3cc(CCC)c(-c4ccc5ccc6cccc7ccc4c5c67)n3[B-](F)(F)[N+]2=C1c1ccc2ccc3cccc4ccc1c2c34

Compound: CN(C)c1ccc(/C=C/c2ccc(-c3nnc(-c4ccc(-c5cc6ccccc6s5)cc4)o3)cc2)cc1
absorption maximum (in CC#N): 334 nm | absorption maximum (in CC(C)=O): 337 nm | absorption maximum (in CCCCCCCC): 334 nm | absorption maximum (in CCCCCCCCCCO): 344 nm | absorption maximum (in CCCCCCCCO): 343 nm | absorption maximum (in CCCCCO): 341 nm | absorption maximum (in CCCO): 341 nm | absorption maximum (in CN(C)C=O): 338 nm | absorption maximum (in CO): 335 nm | absorption maximum (in CS(C)=O): 340 nm

absorption maximum (in C1CCOC1): 388 nm
Compound: COc1ccc(C(=Cc2ccc(/C=C(\C#N)c3ccccc3)cc2)c2ccc(OC)cc2)cc1

absorption maximum (in ClCCl): 360 nm
Compound: CCn1c2c(-c3cccs3)cc(C(C)(C)C)cc2c2cc(C(C)(C)C)cc(-c3cccs3)c21

absorption maximum (in O): 520 nm
Compound: Cc1cc(=O)oc2cc(/[NH+]=C/C=C3/C=C(C(=O)O)NC(C(=O)O)C3)ccc12 (configuration not stated)

absorption maximum (in ClCCl): 370 nm
Compound: Cc1c(C(=O)c2ccc(C(F)(F)F)cc2)c2ccc3cccc4c5cccc6ccc1c(c65)c2c34

absorption maximum (in ClCCl): 528 nm
Compound: F[B-]1(F)N2C=CN=CC2=[N+]2[N+]1=Cc1c(-c3ccccc3)cc(-c3ccccc3)n1[B-]2(F)F

absorption maximum (in ClC(Cl)Cl): 372 nm
Compound: Cc1c2c(nc3ccccc13)-c1cc3c(cc1CC2)-c1nc2ccccc2c(C)c1CC3

Compound: N#Cc1ccc(N)cc1
absorption maximum (in C1CCCCC1): 283 nm | absorption maximum (in CC#N): 272.85 nm | absorption maximum (in CCCCCC): 260.99 nm | absorption maximum (in CCO): 276 nm | absorption maximum (in O): 283 nm | absorption maximum (in OCC(F)(F)F): 264 nm

absorption maximum (in CC#N): 299 nm
Compound: CN(C)c1ccc(-n2c(-c3ccncc3)nc3ccccc32)cc1

absorption maximum (in C1CCOC1): 406 nm
Compound: COc1cc2c(cc1-c1ccc(Cl)cc1)Cc1c3c(c4c(c1-2)-c1cc(OC)c(-c2ccc(Cl)cc2)cc1C4)C(=O)N(CCC(C)C)C3=O

absorption maximum (in ClCCl): 346 nm
Compound: N#Cc1ccc(-c2cc3c(ccc4sccc43)s2)cc1

absorption maximum (in C1CCOC1): 347 nm
Compound: Nc1ccccc1/C=C/C(F)(F)F

absorption maximum (in C1CCOC1): 576 nm
Compound: F[B-]1(F)n2c(c(-c3ccccc3)c(-c3ccccc3)c2-c2ccccc2)C=C2C(c3ccccc3)=C(c3ccccc3)C(c3ccccc3)=[N+]21

absorption maximum (in ClC(Cl)Cl): 423.73 nm
Compound: CCCCCCn1c2cc(/C=C(\C#N)c3ccccc3)ccc2c2ccc(/C=C(\C#N)c3ccccc3)cc21

absorption maximum (in ClCCl): 633 nm
Compound: CCCCCCn1c(=O)c2c3nc4cc5sc6c(nc5cc4sc3c3c(=O)n(CCCCCC)c(=O)c3c2c1=O)c1c(=O)n(CCCCCC)c(=O)c1c1c(=O)n(CCCCCC)c(=O)c61

absorption maximum (in O): 646 nm
Compound: Cc1ccc(C)c(C2=C3C=CC(=[N+](C)C)C=C3[Si](C)(C)c3cc(N(C)C)ccc32)c1

absorption maximum (in ClC(Cl)Cl): 665 nm
Compound: CCCCCCCCCCOc1cc(OCCCCCCCCCC)cc(C2=C3C(C)=CC(/C=C/c4ccc(OC)cc4)=[N+]3[B-](F)(F)n3c(/C=C/c4ccc(OC)cc4)cc(C=Cc4ccc(OC)cc4)c32)c1

absorption maximum (in C1CCCCC1): 385.82 nm
Compound: C[Si](C)(c1cccc2cc3ccccc3cc12)[Si](C)(C)c1cccc2cc3ccccc3cc12

absorption maximum (in C1COCCO1): 445 nm | absorption maximum (in CC#N): 448 nm | absorption maximum (in ClCCl): 453 nm
Compound: CN(C)c1ccc(/C=C/c2nc3cc(Br)ccc3nc2-c2ccccc2)cc1

absorption maximum (in ClCCl): 404 nm
Compound: CCN(CC)c1ccc2c(c1)oc(=O)c1cnc3c(c(C)nn3-c3ccccc3)c12

absorption maximum (in C1CCOC1): 361 nm | absorption maximum (in CCOC(C)=O): 360 nm
Compound: CCn1c2ccc(/C=C/c3ccc4c(c3)c3cc(-c5nc6ccccc6s5)ccc3n4CC)cc2c2cc(-c3nc4ccccc4s3)ccc21

Compound: c1ccc(-c2nc(-c3ccccc3)nc(-c3ccc(-n4c5ccccc5c5cc6c7ccccc7n7c8ccccc8c(c54)c67)cc3)n2)cc1
absorption maximum (in Cc1ccccc1): 383 nm

absorption maximum (in C1CCCCC1): 438 nm | absorption maximum (in C1CCOC1): 439 nm | absorption maximum (in CC#N): 437 nm | absorption maximum (in ClC(Cl)Cl): 440 nm | absorption maximum (in c1ccccc1): 440 nm
Compound: Cc1cc(C)c(B(c2c(C)cc(C)cc2C)c2cc3ccc4ccccc4c3c3c2cc(N(C)C)c2ccccc23)c(C)c1

Compound: CC(C)(C)c1ccc2c(c1)c1cc(C(C)(C)C)ccc1n2-c1cc(-n2c3ccc(C(C)(C)C)cc3c3cc(C(C)(C)C)ccc32)c(-n2c3ccc(C(C)(C)C)cc3c3cc(C(C)(C)C)ccc32)c(C#N)c1-n1c2ccc(C(C)(C)C)cc2c2cc(C(C)(C)C)ccc21
absorption maximum (in Cc1ccccc1): 422.84 nm

absorption maximum (in ClC(Cl)Cl): 385 nm
Compound: CC(C)(C)NC(=O)c1cc2ccc3cccc4ccc(c1C(=O)NC(C)(C)C)c2c34

absorption maximum (in ClCCl): 385 nm
Compound: Cc1ccc(C#Cc2ccc3nc4ccc(C#Cc5ccc(C)cc5)cn4c(=O)c3c2)cc1

Compound: Cc1c2ccccc2c(C2=C3C=CC=[N+]3[B-](F)(F)n3cccc32)c2ccccc12
absorption maximum (in CC#N): 502 nm | absorption maximum (in CCCCCC): 504 nm | absorption maximum (in CCO): 503 nm | absorption maximum (in CN(C)C=O): 506 nm | absorption maximum (in Cc1ccccc1): 508 nm | absorption maximum (in ClCCl): 506 nm

absorption maximum (in CC#N): 335 nm
Compound: Cc1ccc(-c2ccc(/C=C/c3ccccc3)cn2)nc1

absorption maximum (in CC#N): 261 nm
Compound: c1ccc(COc2cc(C[n+]3ccc(-c4cc[n+](Cc5cc(OCc6ccccc6)cc(OCc6ccccc6)c5)cc4)cc3)cc(OCc3ccccc3)c2)cc1

absorption maximum (in ClCCl): 726 nm
Compound: C1=Cc2nc1c(-c1ccccc1)c1ccc([nH]1)c(-c1ccccc1)c1cc(c(-c3ccccc3)c3ccc([nH]3)c2-c2ccccc2)N=C1
